From patent publication US4564613A, “Pyridoindole derivatives, compositions and use” (Troponwerke GmbH & Co., priority 1983, dated 1986) come the findings set out here.

For test [1], the system named is ptosis in mice induced by tetrabenazine. The test can be described thus: Tetrabenazine antagonism (ptosis in mice induced by tetrabenazine). The class given is in vivo. Particulars: Mus musculus, ip, compound intraperitoneally, 20 mg/kg of tetrabenazine intraperitoneally, read-out: ED50 (dose at which the ptosis induced by tetrabenazine is reduced to 50%). As to the method:
(§1) Some test results for the new compounds of the general formula I which were tested for anxiolytic, nootropic and antidepressive properties are given below. The pilot tests used were inhibition of footshock induced aggression (Tedeschi et al., J. Pharmacol. Exp. Ther. 129, p. 28-34, 1954), for the anxiolytic action and the antitetrabenazine test (J. L. Howard et al., in: Antidepressants: Neurochemical, Behavioral and Clinical Perspectives, edited by S. J. Enna et al., Raven Press N.Y., pages 107-120, 1981) and amphetamine potentiation test (J. L. Howard et al., in: Antidepressants: Neurochemical, Behavioral and Clinical Perspectives, edited by S. J. Enna et al., Raven Press N.Y., pages 107-120, 1981) for the antidepressive action.
Substances having an antidepressive action antagonize the ptosis in mice induced by tetrabenazine. The ED50 value indicates the dose at which the ptosis induced by 20 mg/kg of tetrabenazine intraperitoneally is reduced to 50%.

Test [2] relates to amphetamine-induced stereotype behavior in rats. The test can be described thus: Amphetamine potentiation (amphetamine-induced stereotype behavior in rats). Particulars: Rattus norvegicus, ip, compound intraperitoneally, 2 mg/kg of DL-amphetamine sulphate intravenous, read-out: ED50 (dose at which the amphetamine-induced behavior is intensified by 50%). It counts as in vivo. The protocol: as §1
Substances having an antidepressive action potentiate the amphetamine-induced stereotype behavior in rats.
The ED50 value given is the dose at which the amphetamine-induced behavior is intensified by 50% following intravenous administration of 2 mg/kg of DL-amphetamine sulphate.

For the compound `CN1Cc2c(ccc3c2NC(=O)C3=O)C(c2ccc(F)cc2)C1` (centres unmarked) [1 a], in test [1], the 50% effective dose (ED50) worked out at 1 mg/kg.

With `CN1Cc2c(ccc3c2NC(=O)C3=O)C(c2ccccc2)C1` (centres unmarked) [1 b], the ED50 in test [1] was found to be 2 mg/kg.

For the compound `CN1Cc2c(ccc3cc[nH]c23)C(c2ccccc2)C1` (centres unmarked) [2 a], the ED50 in test [2] is 2.4 mg/kg; in test [1] it was 0.3 mg/kg.

For `CN1Cc2c(ccc3cc[nH]c23)C(c2ccc(F)cc2)C1` (centres unmarked) [2 b], the ED50 was 3.9 mg/kg in test [2] and 0.2 mg/kg in test [1].

In the case of `CN1Cc2c(ccc3c2NCC3)C(c2ccccc2)C1` (centres unmarked) [3 a], the ED50 in test [2] amounted to 1.2 mg/kg; in test [1], 0.1 mg/kg.

As for `CN1Cc2c(ccc3c2NCC3)C(c2ccc(F)cc2)C1` (centres unmarked) [3 b], the ED50 in test [2] was determined as 2.2 mg/kg; in test [1], 0.01 mg/kg.

Take `CN1Cc2c(ccc3c2N(C)CC3)C(c2ccc(F)cc2)C1` (centres unmarked) [Compound 4, 1,8-Dimethyl-6-(fluorophenyl)-2,3,6,7,8,9-hexahydro-1H-pyrido[4,3-g]indole]: the ED50 in test [1] is 0.01 mg/kg.
